Assay results reported in ChEMBL document CHEMBL4382229, “Benzofuran derivatives and their anti-tubercular, anti-bacterial activities” (Eur J Med Chem, 2019).
pIC50: −log10 of the molar value. Values after ≈ are worked out from the molar mass of the structure shown.

Assays:
Staphylococcus aureus [1] = test: Antibacterial activity against Staphylococcus aureus MTCC 96 assessed as zone of inhibition at 100 ug/ml by disc diffusion method; assay type: functional; details: read-out: IZ
Streptococcus pyogenes [2] = test: Antibacterial activity against Streptococcus pyogenes MTCC 442 assessed as zone of inhibition at 100 ug/ml by disc diffusion method; assay type: functional; details: read-out: IZ
Escherichia coli [3] = test: Antibacterial activity against Escherichia coli MTCC 443 assessed as zone of inhibition at 100 ug/ml by disc diffusion method; assay type: functional; details: read-out: IZ
Pseudomonas aeruginosa [4] = test: Antibacterial activity against Pseudomonas aeruginosa MTCC 424 assessed as zone of inhibition at 100 ug/ml by disc diffusion method; assay type: functional; details: read-out: IZ
[5] = molecular target: DNA gyrase subunit A/DNA gyrase subunit B (Mycobacterium tuberculosis (strain ATCC 25618 / H37Rv), UniProt P9WG45+P9WG47); test: Inhibition of Mycobacterium tuberculosis H37Rv DNA gyrase A/B expressed in Escherichia coli assessed as reduction in supercoiling of relaxed pBR322 DNA substrate measured after 60 mins by ethidium bromide staining based agarose gel electrophoresis method
DNA gyrase subunit A/DNA gyrase subunit B, sequence (P9WG45 whole entry): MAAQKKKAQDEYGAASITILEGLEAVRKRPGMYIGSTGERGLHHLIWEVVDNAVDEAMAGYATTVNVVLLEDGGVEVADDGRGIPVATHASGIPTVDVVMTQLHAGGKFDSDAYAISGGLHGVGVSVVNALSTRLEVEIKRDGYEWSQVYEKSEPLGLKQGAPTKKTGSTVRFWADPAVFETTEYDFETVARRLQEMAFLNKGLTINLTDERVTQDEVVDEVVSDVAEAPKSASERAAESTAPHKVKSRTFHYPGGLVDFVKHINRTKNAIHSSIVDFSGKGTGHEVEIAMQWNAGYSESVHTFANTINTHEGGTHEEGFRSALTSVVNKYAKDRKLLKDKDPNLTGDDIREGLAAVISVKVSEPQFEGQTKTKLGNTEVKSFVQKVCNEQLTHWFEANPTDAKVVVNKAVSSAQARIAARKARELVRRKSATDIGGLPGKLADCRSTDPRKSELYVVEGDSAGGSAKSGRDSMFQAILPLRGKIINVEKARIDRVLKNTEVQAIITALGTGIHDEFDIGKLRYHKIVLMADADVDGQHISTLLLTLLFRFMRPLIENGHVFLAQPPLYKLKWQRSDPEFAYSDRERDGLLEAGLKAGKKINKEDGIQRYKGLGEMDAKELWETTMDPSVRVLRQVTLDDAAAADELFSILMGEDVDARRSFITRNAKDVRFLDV
DNA gyrase subunit A/DNA gyrase subunit B, sequence (P9WG47 whole entry): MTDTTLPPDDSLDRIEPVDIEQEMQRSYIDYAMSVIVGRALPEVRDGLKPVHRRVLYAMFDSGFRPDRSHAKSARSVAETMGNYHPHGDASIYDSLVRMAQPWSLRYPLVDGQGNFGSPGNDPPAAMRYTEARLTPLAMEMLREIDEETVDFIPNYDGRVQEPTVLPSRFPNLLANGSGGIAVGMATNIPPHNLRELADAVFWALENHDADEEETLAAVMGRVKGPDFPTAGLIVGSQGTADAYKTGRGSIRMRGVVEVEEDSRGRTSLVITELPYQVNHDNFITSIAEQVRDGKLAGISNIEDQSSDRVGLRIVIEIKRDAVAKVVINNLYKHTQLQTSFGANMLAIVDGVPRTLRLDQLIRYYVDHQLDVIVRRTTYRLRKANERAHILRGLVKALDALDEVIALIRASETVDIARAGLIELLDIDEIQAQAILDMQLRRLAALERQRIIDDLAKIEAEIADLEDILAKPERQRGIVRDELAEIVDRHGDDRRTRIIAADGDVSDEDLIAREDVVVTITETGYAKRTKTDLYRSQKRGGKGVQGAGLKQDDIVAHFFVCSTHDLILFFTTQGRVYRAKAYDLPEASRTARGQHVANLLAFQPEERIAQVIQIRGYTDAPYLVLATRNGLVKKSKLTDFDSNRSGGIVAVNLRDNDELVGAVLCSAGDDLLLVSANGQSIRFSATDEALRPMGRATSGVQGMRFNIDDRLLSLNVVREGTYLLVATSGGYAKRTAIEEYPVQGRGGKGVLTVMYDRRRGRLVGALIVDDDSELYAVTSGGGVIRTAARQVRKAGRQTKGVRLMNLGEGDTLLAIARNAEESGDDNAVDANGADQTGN

[6] = tested on: Mycobacterium tuberculosis; test: Antimycobacterial activity against Mycobacterium tuberculosis H37Rv ATCC 27294 after 5 days by microplate alamar blue assay; assay type: functional; details: H37Rv ATCC 27294, 120 h
Bacillus spizizenii = test: Antibacterial activity against Bacillus subtilis ATCC 6633 after 24 hrs by broth dilution method; assay type: functional
Staphylococcus aureus [7] = test: Antibacterial activity against Staphylococcus aureus ATCC 29213 after 24 hrs by broth dilution method; assay type: functional
Escherichia coli [8] = test: Antibacterial activity against Escherichia coli ATCC 11229 after 24 hrs by broth dilution method; assay type: functional
Proteus vulgaris [9] = test: Antibacterial activity against Proteus vulgaris […] after 24 hrs by broth dilution method; assay type: functional
Staphylococcus aureus [10] = test: Antibacterial activity against Staphylococcus aureus ATCC 6538 after 24 hrs by broth dilution method; assay type: functional
Proteus vulgaris [11] = test: Antibacterial activity against Proteus vulgaris after 24 hrs; assay type: functional
Proteus vulgaris [12] = test: Potency index, ratio of norfloxacin MIC to test compound MIC for Proteus vulgaris; assay type: functional
Staphylococcus aureus [13] = test: Antibacterial activity against Staphylococcus aureus assessed as diameter of inhibition zone at 250 ug/ml after 24 hrs by disc diffusion method; assay type: functional; details: read-out: DIZ
Escherichia coli [14] = test: Antibacterial activity against Escherichia coli assessed as diameter of inhibition zone at 250 ug/ml after 24 hrs by disc diffusion method; assay type: functional; details: read-out: DIZ
Staphylococcus aureus [15] = test: Antibacterial activity against Staphylococcus aureus MTCC 96 assessed as zone of inhibition at 25 ug/ml by agar well diffusion method; assay type: functional; details: read-out: IZ
Streptococcus pyogenes [16] = test: Antibacterial activity against Streptococcus pyogenes MTCC 442 assessed as zone of inhibition at 25 ug/ml by agar well diffusion method; assay type: functional; details: read-out: IZ
Escherichia coli [17] = test: Antibacterial activity against Escherichia coli MTCC 443 assessed as zone of inhibition at 25 ug/ml by agar well diffusion method; assay type: functional; details: read-out: IZ
Pseudomonas aeruginosa [18] = test: Antibacterial activity against Pseudomonas aeruginosa MTCC 424 assessed as zone of inhibition at 25 ug/ml by agar well diffusion method; assay type: functional; details: read-out: IZ

COc1ccc(S(=O)(=O)Nc2cc(C)cc3cc(COC(=O)NCc4ccccc4)oc23)cc1
zone of inhibition at 100 µg/mL (Staphylococcus aureus [1]): 19 to 28 mm
zone of inhibition at 100 µg/mL (Streptococcus pyogenes [2]): 19 to 28 mm
zone of inhibition at 100 µg/mL (Escherichia coli [3]): 19 to 28 mm
zone of inhibition at 100 µg/mL (Pseudomonas aeruginosa [4]): 19 to 28 mm

CC(=O)Nc1cc(C)cc2cc(COC(=O)NCc3ccccc3)oc12
zone of inhibition at 100 µg/mL (Staphylococcus aureus [1]): 11 to 28 mm
zone of inhibition at 100 µg/mL (Streptococcus pyogenes [2]): 11 to 28 mm
zone of inhibition at 100 µg/mL (Escherichia coli [3]): 11 to 28 mm
zone of inhibition at 100 µg/mL (Pseudomonas aeruginosa [4]): 11 to 28 mm

O=C(N/N=C1\C(=O)N(c2ccccc2)c2ccccc21)c1cc2ccccc2o1
pIC50 [5]: 3.70 to 4.30

O=C1Nc2ccc([N+](=O)[O-])cc2/C1=N/NC(=O)c1cc2ccccc2o1
pIC50 [5]: 3.70 to 4.30

Cc1cc(NS(=O)(=O)c2ccc(Cl)cc2)c2oc(COC(=O)NCc3ccccc3)cc2c1
zone of inhibition at 100 µg/mL (Staphylococcus aureus [1]): 11 to 28 mm
zone of inhibition at 100 µg/mL (Streptococcus pyogenes [2]): 11 to 28 mm
zone of inhibition at 100 µg/mL (Escherichia coli [3]): 11 to 28 mm
zone of inhibition at 100 µg/mL (Pseudomonas aeruginosa [4]): 11 to 28 mm

NC(=O)c1cnccn1 [PYRAZINAMIDE]
MIC [6]: 3.12 µg/mL (≈ 25.4 µM)

GENTAMICIN
MIC (Bacillus spizizenii): 1.62 to 3.12 µg/mL
MIC (Staphylococcus aureus [7]): 1.6 to 3.1 µg/mL
MIC (Escherichia coli [8]): 1.62 to 3.12 µg/mL
MIC (Proteus vulgaris [9]): 1.62 to 3.12 µg/mL
MIC (Staphylococcus aureus [10]): 1.62 to 3.12 µg/mL

O=C1Nc2c(cccc2[N+](=O)[O-])/C1=N/NC(=O)c1cc2ccccc2o1
MIC (Proteus vulgaris [11]): 31.2 µg/mL (≈ 89.2 µM)
Ratio (Proteus vulgaris [12]): 2

O=C1Nc2ccc(Cl)cc2/C1=N/NC(=O)c1cc2ccccc2o1
pIC50 [5]: 3.70 to 4.30

Cc1ccc(Oc2nc3ccc(C)cc3cc2/C=N\NC(=O)c2cc(-c3cc4ccccc4o3)n(-c3ccccc3)n2)cc1
zone of inhibition at 250 µg/mL (Staphylococcus aureus [13]): 12 to 14 mm
zone of inhibition at 250 µg/mL (Escherichia coli [14]): 12 to 14 mm

Cc1ccc(Oc2nc3ccc(C)cc3cc2C2SCC(=O)N2NC(=O)c2cc(-c3cc4ccccc4o3)n(-c3ccccc3)n2)cc1 (centres undefined)
zone of inhibition at 250 µg/mL (Staphylococcus aureus [13]): 12 to 14 mm
zone of inhibition at 250 µg/mL (Escherichia coli [14]): 12 to 14 mm

Cc1ccc(S(=O)(=O)Nc2cc(C)cc3cc(COC(=O)NCc4ccccc4)oc23)cc1
zone of inhibition at 100 µg/mL (Staphylococcus aureus [1]): 11 to 28 mm
zone of inhibition at 100 µg/mL (Streptococcus pyogenes [2]): 11 to 28 mm
zone of inhibition at 100 µg/mL (Escherichia coli [3]): 11 to 28 mm
zone of inhibition at 100 µg/mL (Pseudomonas aeruginosa [4]): 11 to 28 mm

Cc1cc(NC(=O)c2ccccc2)c2oc(COC(=O)NCc3ccccc3)cc2c1
zone of inhibition at 100 µg/mL (Staphylococcus aureus [1]): 11 to 28 mm
zone of inhibition at 100 µg/mL (Streptococcus pyogenes [2]): 11 to 28 mm
zone of inhibition at 100 µg/mL (Escherichia coli [3]): 11 to 28 mm
zone of inhibition at 100 µg/mL (Pseudomonas aeruginosa [4]): 11 to 28 mm

CCn1cc(C(=O)O)c(=O)c2cc(F)c(N3CCNCC3)cc21 [NORFLOXACIN]
MIC (Proteus vulgaris [11]): 62.5 µg/mL (≈ 196 µM)
zone of inhibition at 25 µg/mL (Staphylococcus aureus [15]): 19 to 25 mm
zone of inhibition at 25 µg/mL (Streptococcus pyogenes [16]): 19 to 25 mm
zone of inhibition at 25 µg/mL (Escherichia coli [17]): 19 to 25 mm
zone of inhibition at 25 µg/mL (Pseudomonas aeruginosa [18]): 19 to 25 mm

COc1ccc(-c2nn(-c3ccccc3)cc2/C=C/c2oc3c4c(ccc3c2C(=O)c2ccc(Br)cc2)OCC=C4)cc1OC
MIC (Bacillus spizizenii; ATCC 6633, 24 h): 1.6 to 3.1 µg/mL (≈ 2.43 to 4.7 µM)
MIC (Staphylococcus aureus [7]; ATCC 29213, 24 h): 1.6 to 3.1 µg/mL (≈ 2.43 to 4.7 µM)
MIC (Escherichia coli [8]; ATCC 11229, 24 h): 1.6 to 3.1 µg/mL (≈ 2.43 to 4.7 µM)
MIC (Proteus vulgaris [9]): 1.6 to 3.1 µg/mL (≈ 2.43 to 4.7 µM)

Cc1c(C(=O)NN)oc2ccccc12
MIC [6]: 6.25 µg/mL (≈ 32.9 µM)

Cc1cc(NS(=O)(=O)c2cccs2)c2oc(COC(=O)NCc3ccccc3)cc2c1
zone of inhibition at 100 µg/mL (Staphylococcus aureus [1]): 11 to 28 mm
zone of inhibition at 100 µg/mL (Streptococcus pyogenes [2]): 11 to 28 mm
zone of inhibition at 100 µg/mL (Escherichia coli [3]): 11 to 28 mm
zone of inhibition at 100 µg/mL (Pseudomonas aeruginosa [4]): 11 to 28 mm
